For orientation: inhibition means the percentage by which the read-out fell short of the control.

The target of the assay is 3',5'-cyclic-AMP phosphodiesterase 4B (Homo sapiens) (UniProt Q07343). The assay can be described thus: Inhibition of PDE4B (unknown origin) using FAM-cAMP as substrate at 10 uM after 60 min by fluorescence polarization assay. (In general: Fluorescence polarisation rises when a labelled molecule tumbles more slowly, as on binding a larger partner.)
Sequence of 3',5'-cyclic-AMP phosphodiesterase 4B (Homo sapiens) (Q07343 whole entry): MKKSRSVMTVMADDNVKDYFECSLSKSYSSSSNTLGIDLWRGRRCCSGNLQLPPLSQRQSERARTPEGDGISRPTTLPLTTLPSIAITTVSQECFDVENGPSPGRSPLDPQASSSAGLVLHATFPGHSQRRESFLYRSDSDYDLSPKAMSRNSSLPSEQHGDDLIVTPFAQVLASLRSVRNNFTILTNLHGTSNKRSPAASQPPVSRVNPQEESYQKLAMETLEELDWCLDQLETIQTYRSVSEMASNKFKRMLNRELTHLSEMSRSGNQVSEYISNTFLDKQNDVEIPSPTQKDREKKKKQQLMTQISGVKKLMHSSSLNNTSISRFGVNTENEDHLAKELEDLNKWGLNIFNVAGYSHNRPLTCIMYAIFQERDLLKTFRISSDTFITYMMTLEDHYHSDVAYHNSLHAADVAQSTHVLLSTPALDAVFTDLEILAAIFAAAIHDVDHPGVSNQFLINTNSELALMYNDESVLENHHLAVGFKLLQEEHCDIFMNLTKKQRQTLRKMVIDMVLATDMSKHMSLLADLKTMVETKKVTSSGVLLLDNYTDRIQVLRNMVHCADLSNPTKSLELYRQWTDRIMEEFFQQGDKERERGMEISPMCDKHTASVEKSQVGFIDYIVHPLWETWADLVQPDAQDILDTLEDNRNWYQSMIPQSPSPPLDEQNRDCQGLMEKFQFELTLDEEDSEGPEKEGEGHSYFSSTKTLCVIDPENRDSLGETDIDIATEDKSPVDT
As for `CCCCn1c(=O)c2ccccc2n(CC(=O)c2ccccc2)c1=O`, the inhibition came out at 22%.
With `CCCCn1c(=O)c2ccccc2n(CCCN2CCCCC2)c1=O` the figure was 11%; with `CCCCn1c(=O)c2ccccc2n(CCCN(CC)CC)c1=O`, 9%; with `CCCCn1c(=O)c2ccccc2n(CCCN2CCN(c3ccccc3)CC2)c1=O`, 13%.
With `CCCCn1c(=O)c2ccccc2n(CCN2CCOCC2)c1=O` the figure was 17%; with `CCCCn1c(=O)c2ccccc2n(CCN(CC)CC)c1=O`, 8%.
The compound `CCCCn1c(=O)c2ccccc2n(Cc2ccccc2)c1=O` came in with an inhibition of 56%.
As for `CCCCn1c(=O)c2ccccc2n(CCCN2CCOCC2)c1=O`, the figure is 100%; as for `CCCCn1c(=O)c2ccccc2n(CC(=O)c2ccc(Cl)cc2)c1=O`, 8%.
As for `CCCCn1c(=O)c2ccccc2n(CCN2CCCCC2)c1=O`, the figure is 11%; as for `CCCCn1c(=O)c2ccccc2n(CCN2CCN(c3ccccc3)CC2)c1=O`, 25%.

(Values after ChEMBL document CHEMBL3046068, “Design, synthesis, and biological activity of certain quinazolinedione derivatives as potent phosphodiestrase4 inhibitors” (Med Chem Res, 2012).)
